Values of other authors as cited in patent US20040186081A1, “Naaladase inhibitors for treating opioid tolerance” (Guilford Pharmaceuticals Inc., priority 2003, published 2004).
Peptide text beside a SMILES is read from it.

Assays:
NAALADase = NAALADase (Homo sapiens, UniProt Q04609); settings: read-out: Km of NAALADase for NAAG; cited from earlier work
[1] = molecular target: mGluRII receptors (mGluR3) (Homo sapiens, UniProt Q14832); settings: read-out: EC50 as direct agonist at mGluRII receptors; cited from earlier work
mGluRII receptors (mGluR3), sequence (Q14832 23-879): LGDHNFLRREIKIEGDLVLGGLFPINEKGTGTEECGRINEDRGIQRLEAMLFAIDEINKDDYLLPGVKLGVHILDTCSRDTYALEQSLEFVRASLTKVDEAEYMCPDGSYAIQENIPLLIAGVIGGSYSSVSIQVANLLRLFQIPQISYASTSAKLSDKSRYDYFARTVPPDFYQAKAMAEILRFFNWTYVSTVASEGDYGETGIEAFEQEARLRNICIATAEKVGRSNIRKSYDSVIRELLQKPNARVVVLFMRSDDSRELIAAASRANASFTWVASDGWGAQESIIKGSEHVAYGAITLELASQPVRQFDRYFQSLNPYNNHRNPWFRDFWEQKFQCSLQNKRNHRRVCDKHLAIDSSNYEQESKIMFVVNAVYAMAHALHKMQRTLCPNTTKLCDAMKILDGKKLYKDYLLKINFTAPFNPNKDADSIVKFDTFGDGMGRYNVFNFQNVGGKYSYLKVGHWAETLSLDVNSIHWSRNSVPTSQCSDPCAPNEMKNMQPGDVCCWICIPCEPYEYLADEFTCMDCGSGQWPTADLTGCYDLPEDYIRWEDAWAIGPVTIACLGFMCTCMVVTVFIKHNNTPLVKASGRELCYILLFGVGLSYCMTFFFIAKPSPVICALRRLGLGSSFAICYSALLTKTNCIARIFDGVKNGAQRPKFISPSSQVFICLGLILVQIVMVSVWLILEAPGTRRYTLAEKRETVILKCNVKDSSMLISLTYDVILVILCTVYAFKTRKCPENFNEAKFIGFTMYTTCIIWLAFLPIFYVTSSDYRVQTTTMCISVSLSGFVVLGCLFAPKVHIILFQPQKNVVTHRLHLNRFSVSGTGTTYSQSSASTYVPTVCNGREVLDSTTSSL

NAALADase, sequence (Q04609 whole entry): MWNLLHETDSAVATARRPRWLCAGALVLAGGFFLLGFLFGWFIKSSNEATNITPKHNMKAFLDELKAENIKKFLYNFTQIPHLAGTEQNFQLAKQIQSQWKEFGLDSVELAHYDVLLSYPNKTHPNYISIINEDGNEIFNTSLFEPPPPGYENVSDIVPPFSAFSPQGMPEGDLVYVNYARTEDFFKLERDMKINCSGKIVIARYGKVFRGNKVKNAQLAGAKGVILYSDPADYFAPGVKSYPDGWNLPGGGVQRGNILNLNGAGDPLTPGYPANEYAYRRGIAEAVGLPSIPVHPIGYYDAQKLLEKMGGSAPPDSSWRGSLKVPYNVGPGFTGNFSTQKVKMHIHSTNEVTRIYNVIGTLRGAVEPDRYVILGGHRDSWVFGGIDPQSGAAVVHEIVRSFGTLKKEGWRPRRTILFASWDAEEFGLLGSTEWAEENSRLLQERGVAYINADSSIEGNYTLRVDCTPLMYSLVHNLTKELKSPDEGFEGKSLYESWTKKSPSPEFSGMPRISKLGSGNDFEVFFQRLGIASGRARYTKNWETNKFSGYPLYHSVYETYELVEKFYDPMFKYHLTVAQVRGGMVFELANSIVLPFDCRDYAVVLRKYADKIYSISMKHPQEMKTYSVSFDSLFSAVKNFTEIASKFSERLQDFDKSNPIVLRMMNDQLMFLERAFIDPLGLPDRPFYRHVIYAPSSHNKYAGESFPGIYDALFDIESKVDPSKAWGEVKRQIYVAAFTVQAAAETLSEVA

In the case of `CC(=O)N[C@@H](CC(=O)O)C(=O)N[C@@H](CCC(=O)O)C(=O)O` [NAAG, N-acetyl-aspartyl-glutamate] (Ac-Asp-Glu-OH), the Km (NAALADase) is given as 0.54 µM and the EC50 [1] is given as ~26 µM.
